Like-named read-outs stand apart in the source and are kept apart here.
Assays:
[1] = phase 1 first-in-human trial, single ascending dose (SAD) PK; type: in vivo; conditions: for fold increase in AUC / fold increase in Cmax: SAD; for Tmax / AUC(0-t) / Cmax / half-life: human, plasma; for Cmax: read-out: Cmax (geometric mean); for half-life: read-out: T1/2 (geometric mean) (converted)
Method: Anle138b was studied in a single-centre, double-blind, randomised, placebo-controlled single ascending dose (SAD) and multiple ascending dose (MAD) study in healthy subjects. Eligible participants were randomly assigned (1:1 for sentinel subjects and 1:5 for main group) to placebo or anle138b (dose ranging from 50 mg to 300 mg per day), respectively. In addition, the effect of food on the pharmacokinetics (PK) of anle138b in healthy subjects was examined at doses of 150 mg per day (FES, food effect study). Participants were randomized to treatment sequence (fed→fasted) or (fasted→fed). Treatment for the SAD, MAD and FES arms of the study was administered orally in hard gelatin capsules containing either 10 mg or 30 mg of anle138b with excipient (i.e., lauroyl polyoxyl-32 glycerides) or excipient only. The primary endpoints were safety and tolerability, the secondary endpoint was pharmacokinetics. Data from all randomized individuals were evaluated. [Clinicaltrials.gov-identifier: NCT04208152. EudraCT-number: 2019-004218-33]
Study design: A single-centre, double-blind, randomised, placebo-controlled single ascending dose (SAD) and multiple ascending dose (MAD) study of anle138b in doses of up to 300 mg per day in healthy subjects. The effect of food (FES) on the PK of anle138b in healthy subjects was examined using doses of 150 mg. Participants were recruited from Quotient Sciences (the “CRO”, Nottingham, UK) volunteer database. Approvals from the ethical review board and from the Medicines and Healthcare products Regulatory Agency (UK) were obtained. This study was conducted in accordance with the protocol and with the following legislation: The updated version of the international Council for Harmonisation Good Clinical Practice (GCP) including the integrated Addendum E6, the Medicines for Human Use (Clinical Trials) Regulations including amendments No. 1928, 2984 and 941. In addition, the study was performed according to the ethical principles outlined in the World Medical Association Declaration of Helsinki and its amendments. The study data was monitored. An independent study monitor was appointed to verify that the study was conducted in accordance with current GCP, regulatory requirements, the protocol and that the data were authentic, accurate and complete.
In SAD, subjects received a single dose of anle138b or placebo after fasting from all food and drink (except water) for a minimum of 8 h prior to dosing. The dosing in the four SAD-cohorts were 50 mg, 100 mg, 200 mg and 300 mg of free anle138b equivalent, QD, cohorts A, B, C and D respectively. In the MAD part, participants received anle138b or placebo once daily (QD) for 7 days after fasting from all food and drink (except water) for a minimum of 8 h prior to dosing. The dosing in the three MAD-cohorts was 100 mg, 200 mg and 300 mg of free anle138b equivalent, cohorts AM, BM and CM, respectively. Post dosing mouth and hand checks were conducted to ensure the capsules were swallowed. In-study decisions were made by the safety advisory committee (SAC) comprising the principal investigator, the sponsor's medical monitor and a PK expert. For dose escalation to proceed, data needed to be available from a minimum of 6 subjects per cohort with completed per protocol safety and PK assessments up to 48 h after dosing to ensure at least 4 subjects had received active IMP. The decision to proceed to the next higher dose level was based on safety, tolerability and available PK data to 48 h post-administration. The following data were analyzed: Adverse events, vital signs, safety laboratory, ECG, physical examinations, plasma concentrations of anle138b with interim PK parameter estimations (Tmax, Cmax, AUC0-24, AUC0-tau, AUC0-last and T½, where applicable). Data were provided to the SAC in accordance with CRO standard operating procedure (SOP) on interim dose decision-making and dose escalation. […]

[2] = 28-day toxicity study in rats; type: in vivo
Text: Safe starting dose & exposure limit justification: This trial followed the recommendations of the EMA (European Medicines Agency) (EMEA/CHMP/SWP/28367/07 Rev. 1; 20 Jul. 2017) and the FDA (Food and Drug Administration) (Guidance for Industry: Estimating the Maximum Safe Starting Dose in Initial Clinical Trials for Therapeutics in Adult Healthy Volunteers. U.S. Department of Health and Human Services Food and Drug Administration Center for Drug Evaluation and Research (CDER) July 2005) for dose finding in a first-in-human study. The safe starting dose was set based on toxicity studies in animals. In a 28-day toxicity study in rats, the no-observed-adverse-effect-level (NOAEL) was determined to be 50 mg/kg/day (human equivalent dose of 8.1 mg/kg). The dose range of the current trial was designed to start at 50 mg. Escalation between doses was planned to be flexible depending on emerging results but not to exceed an increment of 2-fold.

[3] = animal studies, cited from earlier work
[4] = 1.5-fold increase in dose from 200 mg to 300 mg
[5] = 2-fold increase in dose from 50 mg to 100 mg
[6] = 2-fold increase in dose from 100 mg to 200 mg
[7] = po, 50 mg, healthy volunteers, fasted, single oral 50 mg
[8] = po, 100 mg, healthy volunteers, fasted, single oral 100 mg
[9] = po, 200 mg, healthy volunteers, fasted, single oral 200 mg
[10] = po, 300 mg, healthy volunteers, fasted, single oral 300 mg

Q: With `Brc1cccc(-c2cc(-c3ccc4c(c3)OCO4)n[nH]2)c1` [anle138b, 3-(1,3-benzodioxol-5-yl)-5-(3-bromophenyl)-1H-pyrazole] as the molecule, how does the “fold increase in AUC” value [1, 4] read?
A: Its value is about 1.5 fold.

Q: And the “fold increase in Cmax” value [1, 4]?
A: Its value is about 1.5 fold.

Q: What about the “fold increase in AUC” value [1, 5] of the same molecule?
A: The value was about 3.3 fold.

Q: What about the “fold increase in Cmax” value [1, 5] of the same molecule?
A: The value was about 2.9 fold.

Q: What about the “fold increase in AUC” value [1, 6] of the same molecule?
A: Its value is about 3.0 fold.

Q: And the “fold increase in Cmax” value [1, 6]?
A: The value was about 2.9 fold.

Q: And the “practical terminal elimination half-time” value ([1]; healthy volunteers, overall)?
A: The value was about 12 h.

Q: And the Tmax ([1]; oral, healthy volunteers, single dose 50-300 mg, post-administration, read-out: median Tmax, all SAD cohorts)?
A: The Tmax was 1 to 1.5 h.

Q: What about the Tmax ([1]; po, 50 mg, healthy volunteers, fasted, single oral 50 mg (Cohort A), read-out: Tmax (median)) of the same molecule?
A: The Tmax was 1 h.

Q: And the Tmax ([1]; po, 50 mg, healthy volunteers, fasted, single oral 50 mg (Cohort A), read-out: Tmax (range))?
A: Its Tmax is 0.5 to 2 h.

Q: What about the AUC(0-t) ([1]; po, 50 mg, healthy volunteers, fasted, single oral 50 mg, read-out: AUC(0-24) (geometric mean)) of the same molecule?
A: Its AUC(0-t) is about 113 ng·h/mL.

Q: And the AUC(0-t) ([1]; po, 50 mg, healthy volunteers, fasted, single oral 50 mg, read-out: AUC(0-last) (geometric mean))?
A: The AUC(0-t) was 109 ng·h/mL.

Q: And the Cmax [1, 7]?
A: Its Cmax is about 54.3 ng/mL.

Q: And the half-life [1, 7]?
A: Its half-life is 3.9 h.

Q: What about the Tmax ([1]; po, 100 mg, healthy volunteers, fasted, single oral 100 mg (Cohort B), read-out: Tmax (median)) of the same molecule?
A: Its Tmax is 1.5 h.

Q: What about the Tmax ([1]; po, 100 mg, healthy volunteers, fasted, single oral 100 mg (Cohort B), read-out: Tmax (range)) of the same molecule?
A: Its Tmax is 0.5 to 2 h.

Q: And the AUC(0-t) ([1]; po, 100 mg, healthy volunteers, fasted, single oral 100 mg, read-out: AUC(0-24) (geometric mean))?
A: Its AUC(0-t) is over 300 ng·h/mL.

Q: What about the AUC(0-t) ([1]; po, 100 mg, healthy volunteers, fasted, single oral 100 mg, read-out: AUC(0-last) (geometric mean)) of the same molecule?
A: The AUC(0-t) was 372 ng·h/mL.

Q: And the Cmax [1, 8]?
A: The Cmax was about 156 ng/mL.

Q: And the half-life [1, 8]?
A: The half-life was 10.8 h.

Q: What about the Tmax ([1]; po, 200 mg, healthy volunteers, fasted, single oral 200 mg (Cohort C), read-out: Tmax (median)) of the same molecule?
A: Its Tmax is 1.5 h.

Q: What about the Tmax ([1]; po, 200 mg, healthy volunteers, fasted, single oral 200 mg (Cohort C), read-out: Tmax (range)) of the same molecule?
A: The Tmax was 1 to 2 h.

Q: And the AUC(0-t) ([1]; po, 200 mg, healthy volunteers, fasted, single oral 200 mg, read-out: AUC(0-24) (geometric mean))?
A: Its AUC(0-t) is about 1090 ng·h/mL.

Q: And the AUC(0-t) ([1]; po, 200 mg, healthy volunteers, fasted, single oral 200 mg, read-out: AUC(0-last) (geometric mean))?
A: The AUC(0-t) was 1130 ng·h/mL.

Q: What about the Cmax [1, 9] of the same molecule?
A: Its Cmax is about 458 ng/mL.

Q: What about the half-life [1, 9] of the same molecule?
A: The half-life was 12.8 h.

Q: What about the Tmax ([1]; po, 300 mg, healthy volunteers, fasted, single oral 300 mg (Cohort D), read-out: Tmax (median)) of the same molecule?
A: The Tmax was 1.5 h.

Q: What about the Tmax ([1]; po, 300 mg, healthy volunteers, fasted, single oral 300 mg (Cohort D), read-out: Tmax (range)) of the same molecule?
A: The Tmax was 1.5 to 2 h.

Q: What about the AUC(0-t) ([1]; po, 300 mg, healthy volunteers, fasted, single oral 300 mg, read-out: AUC(0-24) (geometric mean)) of the same molecule?
A: Its AUC(0-t) is about 1650 ng·h/mL.

Q: What about the AUC(0-t) ([1]; po, 300 mg, healthy volunteers, fasted, single oral 300 mg, read-out: AUC(0-last) (geometric mean)) of the same molecule?
A: Its AUC(0-t) is 1720 ng·h/mL.

Q: And the Cmax [1, 10]?
A: The Cmax was about 704 ng/mL.

Q: What about the half-life [1, 10] of the same molecule?
A: Its half-life is 16.2 h.

Q: What about the “no-observed-adverse-effect-level (NOAEL)” value ([2]; 28-day toxicity study in rats) of the same molecule?
A: Its value is 50 mg/kg/day.

Q: What about the NOAEL at 28 days ([2]; rat, in vivo) of the same molecule?
A: The NOAEL at 28 days was 8.1 mg/kg.

Q: And the “oral bioavailability (in words)” value [3]?
A: The value was “high oral bioavailability”.

Q: And the “levels in the brain relative to plasma” value ([3]; oral)?
A: Its value is 5 fold.

Source: patent US20250161273A1, “PHARMACEUTICAL COMPOSITION COMPRISING DIPHENYLDIAZOLE DERIVATIVES AND METHODS OF USE” (MODAG GMBH, priority 2022, published 2025)
